System: ARNT2 mRNA
Assay: Stimulation of the expression of ARNT2 mRNA in normal human keratinocytes (real-time RT-PCR)
Format: cell-based
Details: 0.001% active agent (w/w), 24 hours, fold vs untreated control (1.00), housekeeping gene RPLPO
Experimental: Keratinocytes derived from neonatal foreskins (Invitrogen, CA, USA) were cultured in 6-well plates in keratinocyte culture medium with supplement (EpiLife, Invitrogen). After culturing for 24 hours at 37° C., the 70% confluent cells were washed with PBS buffer (Invitrogen, CA) and incubated with basic keratinocytes culture medium (EpiLife, Invitrogen) containing the active agent to be tested, for 24 hours, at increasing concentrations. The cytotoxicity of the active agent was evaluated in human cultured keratinocytes before testing the activity.
Keratinocytes were treated with various concentrations of active agent in triplicates for 24 hours. The mRNA was isolated using the Qiagen RNeasy kit (Qiagen, CA) and quantified using the QuantIt kit (Invitrogen, CA).
The PCR primers were obtained from Applied Biosystems (Applied Biosystems, CA). The housekeeping gene used was RPLPO.
To quantify the expression of messenger RNA of ARNT2 in a treated sample relative to an untreated sample, real-time polymerase chain amplification (RT-PCR) was performed. […]
The relative quantification of the expression of the target gene was performed using the Pfaffl mathematical model (Pfaffl, M W, Nucleic Acids Res. 29(9), p. E45, 2001). […]
The effect of this botanical extract on the expression of the ARNT2 mRNA was evaluated on cultured keratinocytes. […]

## CC(=O)Oc1cc(C=Cc2ccc(OC(=O)CCCCC3CCSS3)cc2)cc(OC(C)=O)c1 (stereo not shown) [Active agent tested, resveratrol 3,5-diacetate-4′-lipoate]
  Stimulation of ARNT2 mRNA: 1.81

From patent US20120237941A1, “METHOD FOR SCREENING ACTIVE AGENTS THAT STIMULATE THE EXPRESSION OF ARNT2 TO IMPROVE THE SKIN'S BARRIER FUNCTION” (CHANEL PARFUMS BEAUTE, priority 2009, published 2012)
